US20230099822A1, “MR1 LIGANDS AND PHARMACEUTICAL COMPOSITIONS FOR IMMUNOMODULATION” (UNIVERSITÄT BASEL, priority 2020, published 2023)
“And” between values parts separate entries of the source, which are not always exact repeats. Equal values may be shown once. “Also recorded” adds a separate entry of the source.

Tests used:
MR1T cell clones [1] = experiment: MR1T cell activation assay with THP-1 cells incubated with compounds (cytokine ELISA); assay type: cell-based, human
Description: MR1T cells (5×10^4/well unless otherwise indicated) were co-cultured with the indicated APCs (10^5 cells per well unless otherwise indicated) for 18 h in 120 μL volume in triplicate.
When nucleobases, nucleosides or nucleotides (all 250 μM) and synthetic compounds M3ADE, OPdA, M1G or OPdC were used to stimulate T cells, the THP-1 cells (10^5/well) were cultured 2 h with the indicated molecules or medium only, prior to T-cell addition. When a single concentration of synthetic antigens was used, 100 μM OPdA, 100 μM OPdC and 13 μM M1G were used for all clones, while 100 μM M3ADE was used for all clones except DGB129, AC1A4, AC1B76 and AVA46 for which 1 μM was used.

[2] = biological target: T1, MR1 surface expression on THP-1 MR1 cells (Homo sapiens, UniProt Q95460); experiment: Cell surface MR1 modulation on APCs (flow cytometry, anti-MR1 mAb 26.5); assay type: cell-based
T1 construct: expressed in transfected cells; host or cells: THP-1 (ATCC TIB-202) stably expressing MR1 (THP1-MR1)
T1 sequence (Q95460 23-341): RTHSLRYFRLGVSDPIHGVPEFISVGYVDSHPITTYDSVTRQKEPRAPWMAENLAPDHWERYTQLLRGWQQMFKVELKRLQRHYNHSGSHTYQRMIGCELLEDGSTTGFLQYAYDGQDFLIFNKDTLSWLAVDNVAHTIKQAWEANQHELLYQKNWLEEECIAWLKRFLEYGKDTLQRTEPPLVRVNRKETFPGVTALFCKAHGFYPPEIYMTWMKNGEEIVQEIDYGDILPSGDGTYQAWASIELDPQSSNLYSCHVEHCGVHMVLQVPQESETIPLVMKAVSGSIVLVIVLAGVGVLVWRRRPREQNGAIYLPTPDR
T1 sequence (P61769 21-119 partner): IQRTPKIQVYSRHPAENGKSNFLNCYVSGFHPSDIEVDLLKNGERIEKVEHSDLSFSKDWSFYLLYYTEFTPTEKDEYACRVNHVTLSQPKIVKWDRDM
Description: […] […] For each condition, net MFI was calculated subtracting isotype MFI from anti-MR1 MFI and fold change of cells treated with synthetic molecules over cells treated with vehicle was calculated.

[3] = test system: tumor-infiltrating T cells from lung cancer biopsies; experiment: Activation of MR1-M3ADE tetramer-sorted TIL lines; assay type: cell-based, human; settings: A375-MR1 cells with or without M3ADE; TCR downregulation, IFN-γ
Description: Tissue biopsy samples derived from small cell lung tumors that were digested with media containing Accutase (Innovative Cell; Cat #AT-104), Collagenase IV 200 U/mL (Worthington; Cat #LS004189), DNAse I 0.5 mg/mL (Sigma-Aldrich Cat #D5025) and Hyaluronidase 50 mg/mL (Sigma; Cat #H6254) for 1 hour at 37° C. Digested material was passed through a […] cell strainer and erythrocytes were lysed before being frozen and stored in liquid nitrogen. After thawing, TILs were rested for 2 days prior to co-culture with A375-p2mKO-MR1 cells in a ratio of 1:1 and in the presence of 50 μM M3ADE. On day 5, human rIL-2 (5 U/mL) was added to the cultures for a further 5 days, and expansion in this manner was repeated 3 times. Cells were then stained with MR1-M3ADE tetramer, anti-CD3, anti-CD4 and anti-CD8 mAbs, and tetramer positive cells were sorted into a bulk line before functional experiments.
The inventors isolated TILs from non-small cell-lung-cancer biopsies from two patients and co-cultured them with A375-MR1 cells loaded with M3ADE, in order to expand MR1T cells. […] The inventors measured the extent of MR1T-cell activation via TCR downregulation, which occurred only in the presence of […] M3ADE-loaded A375-MR1 cells, and was prevented by anti-MR1 blocking mAbs (FIG. 14C, donor 840, and FIG. 14D, donor 895). […]

MR1T cell clones [4] = experiment: MR1T cell activation assay with treated and fixed A375-MR1 cells; assay type: cell-based, human; settings: 6 h incubation before fixation; clones TC5A87 and DGB129 (FIG. 9C, D)
[5] = test system: MR1T cell clones AVA34, AC1A4 and MAIT clone MRC25; experiment: MR1 tetramer staining of T cell clones; assay type: binding, human
Description: Correct protein conformation was confirmed by performing a plate-bound activation of the MR1T cell clone DGB129. Refolded MR1-compound protein was serially diluted in PBS (1.5-100 μg/mL) and added to a high-protein-binding plate (Nunc, Cat #439454) for 2 h at 37° C. The wells were washed thoroughly with PBS before addition of 5×10^4 cells that were left overnight at 37° C. IL-13 ELISA was then used as an activation readout. The functional monomer was then biotinylated using BirA-500 biotinylation kit (Avidity, Cat #Bulk BirA) overnight at 4° C. Excess biotin was removed using S75 10/30 (GE Healthcare, 29148721) gel filtration before tetramerization with phycoerythrin (PE) streptavidin (Prozyme, Cat #P JRS25) in a 4:1 molar ratio. As control MR1 tetramers, human MR1-5-OP-RU and human MR1-6-FP labelled with APC, PE or AlexaFluor488 were used (The MR1 tetramer technology was developed jointly by Dr. James McCluskey, Dr. Jamie Rossjohn, and Dr. David Fairlie, and the material was produced by the NIH Tetramer Core Facility as permitted to be distributed by the University of Melbourne). […]
Samples were acquired on LSR Fortessa flow cytometer with the FACS Diva software (Becton Dickinson). […] When PBMCs were analyzed, CD14^+ and CD19^+ cells were excluded by staining with fluorescent antibodies detected in the same channel as the Live/Dead staining. All data was analyzed using FlowJo (LLC).

MR1T cell clones [6] = experiment: Activation assay with plate-bound soluble MR1; assay type: cell-based, human; settings: IL-13 (FIG. 4)
Description: Recombinant human P2m-MR1-Fc was produced in CHO-K1 cells as previously described (Lepore et al., 2017) and 4 μg/mL were coated onto 96 wells plates (Nunc, Cat #439454) for 18 h at 4° C. Plate-bound MR1 was then washed twice with wash buffer (150 mM NaCl, 20 mM Tris and 2% Glycerol, pH 5.6) to remove bound antigens. Then, the synthetic antigens (M3ADE, OPdA, M1G and OPdC) were added at the indicated concentrations and incubated for 6 h at room temperature (RT). Unbound antigens were washed twice with PBS before the addition of excess PBS. In some experiments, bacteria-produced and refolded MR1-M3ADE protein was serially diluted in PBS and added to a high protein binding plate (Nunc, Cat #439454) for 2 h at 37° C. then washed twice and used in the stimulation assay. Indicated MR1T cell clones ([…]) were added and supernatants were collected after 18 h. Released cytokines were detected by ELISA. Recombinant human P2m-MR1-Fc was produced in CHO-K1 cells as previously described and 4 μg/mL were coated onto 96 wells plates. Antigens produced by CHO-K1 cells were removed by washing twice with wash buffer (150 mM NaCl, 20 mM Tris and 2% Glycerol, pH 5.6). […]
Correct protein conformation was confirmed by performing a plate-bound activation of the MR1T cell clone DGB129. […] IL-13 ELISA was then used as an activation readout. […]

With `O=CC1=COC2CC1C(C=O)=CN2c1ncnc2[nH]cnc12` (centres unmarked) [Cmpd 13, 8-(9H-purin-6-yl)-2-oxa-8-azabicyclo[3.3.1]nona-3,6-diene-4,6-dicarbaldehyde] the “Reactive T cells isolated” value (MR1T cell clones [1]) was “YES”, the “activation of MR1T clone AC1A4 by adduct” value (MR1T cell clones [1]) was “activated” and the “potency among the synthesized adducts” value (MR1T cell clones [1]) was “highest potency”. For the same compound, the “response to THP-1 cells when adduct added” value (MR1T cell clones [1]; M1G or M3ADE added to clones QY1A16 and QY1C3, respectively) was “significant decreased response”, the “activation of MR1T clone AVA34 by compound” value (MR1T cell clones [1]; THP-1 / MR1+ APCs loaded with compound, listed as M3ADE) was “specifically activated; also recorded: reacted” and the “number of MR1T clones significantly stimulated” value (MR1T cell clones [1]; fourteen randomly selected MR1T clones, THP-1 cells, IFN-γ (FIG. 12B), listed as M3ADE) was “six and 6/14”. The “IL-13 release by AVA34 cells” value (MR1T cell clones [1]; toward THP-1 cells in the presence of compound (FIG. 5b)) was “IL-13 release”, the MRI upregulation ([2]; THP-1 MR1 cells, 3 h at 37° C., 3 doses each) was “YES” and the “cell surface MR1 upregulation on APCs (in words)” value ([2]; pulsed APC / THP1-MR1 cells) was “most efficient in increasing MR1 surface expression”. The “reactivity of tetramer-positive TIL cells, donor 895” value [3] was “reacted only to M3ADE-loaded A375-MR1 cells” and the “reactivity of tetramer-positive TIL cells, donor #840” value [3] was “irrespective of the presence of M3ADE”.
In the case of `O=CC[C@@H](O)[C@H](O)[C@H](O)CO` [deoxyglucose, 2-deoxy-D-Glucose], the “MR1T-cell stimulatory capacity of pulsed and fixed A375-MR1 cells” value (MR1T cell clones [4]) is reported as “abolished”.
In the case of “MR1-6-FP tetramers: control MR1 tetramer, human MR1-6-FP, produced by the NIH Tetramer Core Facility”, the “tetramer staining of MR1T clone AVA34” value [5] is reported as “not”.
“MR1-M3ADE monomers: human recombinant soluble MR1 refolded in vitro in the presence of M3ADE” was tested, and the “stimulation of clone DGB129 by refolded MR1-M3ADE monomers” value (MR1T cell clones [6]) was “stimulated”.
